Tested on: 967376-340-R-J2-PDC multicell spheroid viability
Test: Anticancer human tumor 967376-340-R-J2-PDC patient-derived colon adenocarcinoma cell line growth inhibition [PI3K]
Conditions: for IC50: curve of first compound; for viability, T/C: stronger effect = lower value
How it was run: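 Three cell types, namely tumor cells, endothelial cells and mesenchymal stem cells, formed each spheroid. Combinations with four PI3K inhibitors were screened at clinically achievable concentrations decreasing by half-log, and spheroid viability was recorded.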

[1] = second compound 0.0316 µM, first compound 0.000316 µM
[2] = second compound 0.0316 µM, first compound 0.001 µM
[3] = second compound 0.0316 µM, first compound 0.00316 µM
[4] = second compound 0.0316 µM, first compound 0.01 µM
[5] = second compound 0.0316 µM, first compound 0.0316 µM
[6] = second compound 0.0316 µM, first compound 0.1 µM
[7] = second compound 0.1 µM, first compound 0.000316 µM
[8] = second compound 0.1 µM, first compound 0.001 µM
[9] = second compound 0.1 µM, first compound 0.00316 µM
[10] = second compound 0.1 µM, first compound 0.01 µM
[11] = second compound 0.1 µM, first compound 0.0316 µM
[12] = second compound 0.1 µM, first compound 0.1 µM
[13] = second compound 0.316 µM, first compound 0.000316 µM
[14] = second compound 0.316 µM, first compound 0.001 µM
[15] = second compound 0.316 µM, first compound 0.00316 µM
[16] = second compound 0.316 µM, first compound 0.01 µM
[17] = second compound 0.316 µM, first compound 0.0316 µM
[18] = second compound 0.316 µM, first compound 0.1 µM
[19] = second compound 1 µM, first compound 0.000316 µM
[20] = second compound 1 µM, first compound 0.001 µM
[21] = second compound 1 µM, first compound 0.00316 µM
[22] = second compound 1 µM, first compound 0.01 µM
[23] = second compound 1 µM, first compound 0.0316 µM
[24] = second compound 1 µM, first compound 0.1 µM
[25] = second compound 3.16 µM, first compound 0.000316 µM
[26] = second compound 3.16 µM, first compound 0.001 µM
[27] = second compound 3.16 µM, first compound 0.00316 µM
[28] = second compound 3.16 µM, first compound 0.01 µM
[29] = second compound 3.16 µM, first compound 0.0316 µM
[30] = second compound 3.16 µM, first compound 0.1 µM
[31] = second compound 10 µM, first compound 0.000316 µM
[32] = second compound 10 µM, first compound 0.001 µM
[33] = second compound 10 µM, first compound 0.00316 µM
[34] = second compound 10 µM, first compound 0.01 µM
[35] = second compound 10 µM, first compound 0.0316 µM
[36] = second compound 10 µM, first compound 0.1 µM
[37] = second compound 0.0316 µM, first compound 0.316 µM
[38] = second compound 0.0316 µM, first compound 1 µM
[39] = second compound 0.0316 µM, first compound 3.16 µM
[40] = second compound 0.0316 µM, first compound 10 µM
[41] = second compound 0.1 µM, first compound 0.316 µM
[42] = second compound 0.1 µM, first compound 1 µM
[43] = second compound 0.1 µM, first compound 3.16 µM
[44] = second compound 0.1 µM, first compound 10 µM
[45] = second compound 0.316 µM, first compound 0.316 µM
[46] = second compound 0.316 µM, first compound 1 µM
[47] = second compound 0.316 µM, first compound 3.16 µM
[48] = second compound 0.316 µM, first compound 10 µM
[49] = second compound 1 µM, first compound 0.316 µM
[50] = second compound 1 µM, first compound 1 µM
[51] = second compound 1 µM, first compound 3.16 µM
[52] = second compound 1 µM, first compound 10 µM
[53] = second compound 3.16 µM, first compound 0.316 µM
[54] = second compound 3.16 µM, first compound 1 µM
[55] = second compound 3.16 µM, first compound 3.16 µM
[56] = second compound 3.16 µM, first compound 10 µM
[57] = second compound 10 µM, first compound 0.316 µM
[58] = second compound 10 µM, first compound 1 µM
[59] = second compound 10 µM, first compound 3.16 µM
[60] = second compound 10 µM, first compound 10 µM
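Further: spheroids exposed to agents for 7 days before read-out.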
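Wherever viability, T/C is given: luminescence used as surrogate of cell viability.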

CC(C)n1nc(-c2ccc3oc(N)nc3c2)c2c(N)ncnc21 + Cc1nc(NC(=O)N2CCCC2C(N)=O)sc1-c1ccnc(C(C)(C)C(F)(F)F)c1
IC50 (second compound 0.0316 µM): > 0.1 µM
IC50 (second compound 0.1 µM): 0.0913 µM
IC50 (second compound 0.316 µM): 0.0705 µM
IC50 (second compound 1 µM): 0.0551 µM
IC50 (second compound 3.16 µM): 0.022 µM
IC50 (second compound 10 µM): 0.00587 µM
viability, T/C [1]: 90.8%
viability, T/C [2]: 108%
viability, T/C [3]: 96.5%
viability, T/C [4]: 109%
viability, T/C [5]: 70.5%
viability, T/C [6]: 53.4%
viability, T/C [7]: 84.1%
viability, T/C [8]: 69.3%
viability, T/C [9]: 88.7%
viability, T/C [10]: 73%
viability, T/C [11]: 70.8%
viability, T/C [12]: 48.2%
viability, T/C [13]: 67.5%
viability, T/C [14]: 79.3%
viability, T/C [15]: 80.4%
viability, T/C [16]: 72.3%
viability, T/C [17]: 58.7%
viability, T/C [18]: 46.2%
viability, T/C [19]: 65.4%
viability, T/C [20]: 64.5%
viability, T/C [21]: 59.3%
viability, T/C [22]: 59.7%
viability, T/C [23]: 66%
viability, T/C [24]: 36.2%
viability, T/C [25]: 54.6%
viability, T/C [26]: 58.2%
viability, T/C [27]: 62.3%
viability, T/C [28]: 53.7%
viability, T/C [29]: 46.7%
viability, T/C [30]: 32.2%
viability, T/C [31]: 47.8%
viability, T/C [32]: 54.2%
viability, T/C [33]: 51.6%
viability, T/C [34]: 48.9%
viability, T/C [35]: 41.3%
viability, T/C [36]: 34.5%

CC1(C)CCC(CN2CCN(c3ccc(C(=O)NS(=O)(=O)c4ccc(NCC5CCOCC5)c([N+](=O)[O-])c4)c(Oc4cnc5[nH]ccc5c4)c3)CC2)=C(c2ccc(Cl)cc2)C1 + Cc1nc(NC(=O)N2CCCC2C(N)=O)sc1-c1ccnc(C(C)(C)C(F)(F)F)c1
IC50 (second compound 0.0316 µM): > 10 µM
IC50 (second compound 0.1 µM): 8.83 µM
IC50 (second compound 0.316 µM): 8.52 µM
IC50 (second compound 1 µM): > 10 µM
IC50 (second compound 3.16 µM): 4.67 µM
IC50 (second compound 10 µM): 2.63 µM
viability, T/C [5]: 103%
viability, T/C [6]: 91.3%
viability, T/C [37]: 88.8%
viability, T/C [38]: 86%
viability, T/C [39]: 104%
viability, T/C [40]: 55.1%
viability, T/C [11]: 88.9%
viability, T/C [12]: 83.6%
viability, T/C [41]: 86.4%
viability, T/C [42]: 86.8%
viability, T/C [43]: 77.8%
viability, T/C [44]: 46.5%
viability, T/C [17]: 88.2%
viability, T/C [18]: 76.8%
viability, T/C [45]: 73%
viability, T/C [46]: 66.1%
viability, T/C [47]: 75.9%
viability, T/C [48]: 46%
viability, T/C [23]: 86.1%
viability, T/C [24]: 73.3%
viability, T/C [49]: 72.1%
viability, T/C [50]: 61.5%
viability, T/C [51]: 69.2%
viability, T/C [52]: 52.3%
viability, T/C [29]: 57.1%
viability, T/C [30]: 71.8%
viability, T/C [53]: 63%
viability, T/C [54]: 60.5%
viability, T/C [55]: 59%
viability, T/C [56]: 33.4%
viability, T/C [35]: 63.9%
viability, T/C [36]: 50.3%
viability, T/C [57]: 62.7%
viability, T/C [58]: 48.8%
viability, T/C [59]: 53%
viability, T/C [60]: 38.6%

CCCS(=O)(=O)Nc1ccc(F)c(C(=O)c2c[nH]c3ncc(-c4ccc(Cl)cc4)cc23)c1F + Cc1nc(NC(=O)N2CCCC2C(N)=O)sc1-c1ccnc(C(C)(C)C(F)(F)F)c1
IC50 (second compound 0.0316 µM): 6.97 µM
IC50 (second compound 0.1 µM): > 10 µM
IC50 (second compound 0.316 µM): 8.25 µM
IC50 (second compound 1 µM): 6.02 µM
IC50 (second compound 3.16 µM): > 10 µM
IC50 (second compound 10 µM): 4.47 µM
viability, T/C [5]: 80.2%
viability, T/C [6]: 82%
viability, T/C [37]: 101%
viability, T/C [38]: 102%
viability, T/C [39]: 105%
viability, T/C [40]: 29.8%
viability, T/C [11]: 95.7%
viability, T/C [12]: 72%
viability, T/C [41]: 77.2%
viability, T/C [42]: 80%
viability, T/C [43]: 117%
viability, T/C [44]: 60.3%
viability, T/C [17]: 63%
viability, T/C [18]: 81.2%
viability, T/C [45]: 68.7%
viability, T/C [46]: 91.7%
viability, T/C [47]: 88.4%
viability, T/C [48]: 44.3%
viability, T/C [23]: 78.2%
viability, T/C [24]: 69.1%
viability, T/C [49]: 74%
viability, T/C [50]: 74.8%
viability, T/C [51]: 66.3%
viability, T/C [52]: 36.6%
viability, T/C [29]: 50.5%
viability, T/C [30]: 56.5%
viability, T/C [53]: 60.3%
viability, T/C [54]: 65.6%
viability, T/C [55]: 71.4%
viability, T/C [56]: 61.4%
viability, T/C [35]: 59.7%
viability, T/C [36]: 46.9%
viability, T/C [57]: 69.2%
viability, T/C [58]: 49.6%
viability, T/C [59]: 65.1%
viability, T/C [60]: 31.1%

C[C@@H](NC(=O)c1ncnc(N)c1Cl)c1ncc(C(=O)Nc2cc(C(F)(F)F)c(Cl)cn2)s1 + Cc1nc(NC(=O)N2CCCC2C(N)=O)sc1-c1ccnc(C(C)(C)C(F)(F)F)c1
IC50 (second compound 0.0316 µM): > 10 µM
IC50 (second compound 0.1 µM): > 10 µM
IC50 (second compound 0.316 µM): > 10 µM
IC50 (second compound 1 µM): > 10 µM
IC50 (second compound 3.16 µM): > 10 µM
IC50 (second compound 10 µM): > 10 µM
viability, T/C [5]: 87.1%
viability, T/C [6]: 88.3%
viability, T/C [37]: 84.6%
viability, T/C [38]: 105%
viability, T/C [39]: 94.2%
viability, T/C [40]: 100%
viability, T/C [11]: 105%
viability, T/C [12]: 77.1%
viability, T/C [41]: 85.4%
viability, T/C [42]: 96.7%
viability, T/C [43]: 98.3%
viability, T/C [44]: 97.6%
viability, T/C [17]: 65.6%
viability, T/C [18]: 100%
viability, T/C [45]: 68%
viability, T/C [46]: 99.7%
viability, T/C [47]: 89.7%
viability, T/C [48]: 78.7%
viability, T/C [23]: 72.8%
viability, T/C [24]: 80.4%
viability, T/C [49]: 79.6%
viability, T/C [50]: 70.1%
viability, T/C [51]: 96.6%
viability, T/C [52]: 76%
viability, T/C [29]: 55%
viability, T/C [30]: 71%
viability, T/C [53]: 71.9%
viability, T/C [54]: 74%
viability, T/C [55]: 69.4%
viability, T/C [56]: 68.2%
viability, T/C [35]: 56.4%
viability, T/C [36]: 59.9%
viability, T/C [57]: 62.1%
viability, T/C [58]: 54%
viability, T/C [59]: 61.8%
viability, T/C [60]: 54.5%

Cn1ncnc1[C@H]1c2n[nH]c(=O)c3cc(F)cc(c23)N[C@@H]1c1ccc(F)cc1 + Cc1nc(NC(=O)N2CCCC2C(N)=O)sc1-c1ccnc(C(C)(C)C(F)(F)F)c1
IC50 (second compound 0.0316 µM): > 0.1 µM
IC50 (second compound 0.1 µM): > 0.1 µM
IC50 (second compound 0.316 µM): > 0.1 µM
IC50 (second compound 1 µM): > 0.1 µM
IC50 (second compound 3.16 µM): > 0.1 µM
IC50 (second compound 10 µM): 0.0218 µM
viability, T/C [1]: 85.9%
viability, T/C [2]: 84.8%
viability, T/C [3]: 83%
viability, T/C [4]: 79.5%
viability, T/C [5]: 109%
viability, T/C [6]: 86.2%
viability, T/C [7]: 104%
viability, T/C [8]: 69.8%
viability, T/C [9]: 77.9%
viability, T/C [10]: 92.8%
viability, T/C [11]: 82.6%
viability, T/C [12]: 82.1%
viability, T/C [13]: 70.7%
viability, T/C [14]: 69%
viability, T/C [15]: 50.6%
viability, T/C [16]: 76.6%
viability, T/C [17]: 71.3%
viability, T/C [18]: 67.8%
viability, T/C [19]: 58.9%
viability, T/C [20]: 71.8%
viability, T/C [21]: 71.8%
viability, T/C [22]: 67%
viability, T/C [23]: 55.1%
viability, T/C [24]: 60.3%
viability, T/C [25]: 51%
viability, T/C [26]: 65.9%
viability, T/C [27]: 65.5%
viability, T/C [28]: 68.9%
viability, T/C [29]: 62.4%
viability, T/C [30]: 56%
viability, T/C [31]: 48.2%
viability, T/C [32]: 71.1%
viability, T/C [33]: 51.5%
viability, T/C [34]: 38.8%
viability, T/C [35]: 50.8%
viability, T/C [36]: 51.7%
